Source: article PMC9867241, “Antioxidant and Cytotoxic Activity of New Polyphenolic Derivatives of Quinazolin-4(3H)-one: Synthesis and In Vitro Activities Evaluation” (Pharmaceutics, 2022)

Experiments:
[1] = system: LNCaP (prostate carcinoma) cells; assay: Cytotoxicity, Alamar blue assay, LNCaP cells; assay type: cell-based; conditions: Homo sapiens, 24 h exposure
Outline: (§1)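 Cells were seeded to reach 70–80% confluence at 24 h, then exposed to compounds at 12.5–100 µg/mL for 24 h. Viability was read by resazurin (200 µM, 4 h) fluorescence relative to 0.2% DMSO control. IC50 came from a 4-parameter logistic fit.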

[2] = system: normal human foreskin fibroblasts (BJ); assay: Cytotoxicity, Alamar blue assay, BJ cells; assay type: cell-based; conditions: Homo sapiens, Fibroblast; 24 h exposure, Alamar blue
Outline: as §1

[3] = system: A549 (lung adenocarcinoma) cells; assay: Cytotoxicity, Alamar blue assay, A549 cells; assay type: cell-based; conditions: Homo sapiens, 24 h exposure
Outline: as §1

[4] = Phosphomolybdate assay for total antioxidant capacity (TAC); set-up: concentration or dose not given beside the values; conditions: for TAC, % of Activity of Trolox: relative to Trolox; for TAC, % of Activity of Ascorbic Acid: relative to ascorbic acid
Source text: Using the phosphomolybdate assay, we determined the total antioxidant capacity (TAC) of the tested compounds. We measured the solutions’ absorbances against a blank sample at λ = 695 nm, using a previously reported procedure by our group, based on initial literature reports. Using Equation (4), we calculated the TAC of 5a–d and 6a–d compounds.
At acidic pH, the tested compounds transfer one electron to Mo^6+ to reduce it to Mo^5+.

[5] = Cupric reducing antioxidant capacity (CUPRAC) assay; set-up: concentration or dose not given beside the values; conditions: for CUPRAC, % of Activity of Trolox: relative to Trolox; for CUPRAC, % of Activity of Ascorbic Acid: relative to ascorbic acid
Experimental: The ability to donate electrons was evaluated for the compounds 5a–d and 6a–d, by the CUPRAC (CUPric reducing antioxidant capacity) method. The absorbance was measured against a blank sample, at λ = 450 nm. The assay was performed based on our group’s previous report by the adaptation of the initial report of Alam et al., Özyürek et al. and Apak et al.. With the use of Equation (4), the cupric ion reduction by compounds 5a–d and 6a–d was expressed as a percentage of the reference compound activity.
The Cu^2+ ions are reduced to Cu^+ ions by the electron-donating compounds. The Cu^+ ions are chelated by neocuproine, giving a colored complex with absorbance proportional to the quantity of Cu^+ ions that resulted.

[6] = DPPH˙ radical scavenging assay
Outline: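 Compounds from 1 mg/mL DMSO stocks tested at various concentrations against DPPH˙, following Brand-Williams. Scavenging followed as absorbance decrease at 517 nm by spectrophotometer; triplicate determinations, averaged.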

[7] = Fe^2+ chelation assay (ferrozine competition)
Outline: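 Fe²⁺ chelation by competition with ferrozine, with absorbance read at 562 nm against a blank. Chelation % = (control − sample absorbance)/control absorbance × 100.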

Structure (SMILES)	IC50 [1]	IC50 [2]	IC50 [3]	melting point	TAC, % of Activity of Trolox [4]	TAC, % of Activity of Ascorbic Acid [4]	CUPRAC, % of Activity of Trolox [5]	CUPRAC, % of Activity of Ascorbic Acid [5]	IC50 [6]	IC50 (DPPH˙ scavenging) [6]	% of DPPH˙ Scavenging ([6]; 1.25 µg/mL)	% of DPPH˙ Scavenging ([6]; 2.5 µg/mL)	% of DPPH˙ Scavenging ([6]; 3.75 µg/mL)	% of DPPH˙ Scavenging ([6]; 5 µg/mL)	% of DPPH˙ Scavenging ([6]; 7.5 µg/mL)	% of DPPH˙ Scavenging ([6]; 10 µg/mL)	% of DPPH˙ Scavenging ([6]; 12.5 µg/mL)	% of DPPH˙ Scavenging ([6]; 15 µg/mL)	Ferrous ions Chelation Capacity (%) ([7]; 17.70 µg/mL)	Ferrous ions Chelation Capacity (%) ([7]; 20.59 µg/mL)	further results
C=CCn1c(SCC(=O)NN=C(C)c2ccc(O)cc2O)nc2ccccc2c1=O [Compound 6a, 2-((3-Allyl-4-oxo-3,4-dihydroquinazolin-2-yl)thio)-N’-(1-(2,4-dihydroxyphenyl)ethylidene)acetohydrazide]	43.4 µg/mL	> 100 µg/mL	35.7 µg/mL	230 °C	94.38%	48.91%	12.83%	13.46%	> 30 µM	>15 µg/mL	- (- represents less than 5%)	- (- represents less than 5%)	- (- represents less than 5%)	- (- represents less than 5%)	- (- represents less than 5%)	- (- represents less than 5%)	12.28%	21.34%	- (- represents less than 5%)	- (- represents less than 5%)	Ferrous ions Chelation Capacity (%) ([7]; 29.41 µg/mL): - (- represents less than 5%); Ferrous ions Chelation Capacity (%) ([7]; 44.11 µg/mL): - (- represents less than 5%); Ferrous ions Chelation Capacity (%) ([7]; 58.82 µg/mL): - (- represents less than 5%); Ferrous ions Chelation Capacity (%) ([7]; 88.23 µg/mL): - (- represents less than 5%); Ferrous ions Chelation Capacity (%) ([7]; 117.64 µg/mL): - (- represents less than 5%); Ferrous ions Chelation Capacity (%) ([7]; 257.46 µg/mL): - (- represents less than 5%); Ferrous ions Chelation Capacity (%) ([7]; 343.28 µg/mL): - (- represents less than 5%)
CCCCn1c(SCC(=O)NN=C(C)c2ccc(O)cc2O)nc2ccccc2c1=O [Compound 6d, 2-((3-butyl-4-oxo-3,4-dihydroquinazolin-2-yl)thio)-N’-(1-(2,4-dihydroxyphenyl)ethylidene)acetohydrazide]	24.3 µg/mL	> 100 µg/mL	32.4 µg/mL	225 °C	76.63%	39.72%	11.25%	11.80%	> 30 µM	>15 µg/mL	- (- represents less than 5%)	- (- represents less than 5%)	- (- represents less than 5%)	- (- represents less than 5%)	- (- represents less than 5%)	- (- represents less than 5%)	10.99%	13.87%	- (- represents less than 5%)	- (- represents less than 5%)	Ferrous ions Chelation Capacity (%) ([7]; 29.41 µg/mL): - (- represents less than 5%); Ferrous ions Chelation Capacity (%) ([7]; 44.11 µg/mL): - (- represents less than 5%); Ferrous ions Chelation Capacity (%) ([7]; 58.82 µg/mL): - (- represents less than 5%); Ferrous ions Chelation Capacity (%) ([7]; 88.23 µg/mL): - (- represents less than 5%); Ferrous ions Chelation Capacity (%) ([7]; 117.64 µg/mL): - (- represents less than 5%); Ferrous ions Chelation Capacity (%) ([7]; 257.46 µg/mL): - (- represents less than 5%); Ferrous ions Chelation Capacity (%) ([7]; 343.28 µg/mL): - (- represents less than 5%)
